Test results published in ChEMBL document CHEMBL1201862, “PubChem BioAssay data set” (2004).
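How tested: cells in 96-well plates exposed to compound for 48 hours at five concentrations. At the GI50, growth is halved.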 Calls of active or inactive are those of the source. Rule as the data show it: active = GI50 up to about 1.1 µM and inactive = higher. *1 amine or outer side, *2 acyl side, *3 side chain or, on linkers, in order; H or OH if unused. Where a SMILES comes first, the peptide text is derived from it. [ ]: non-standard residue; d: D form. The star is where a group is joined. ξ: configuration not given here. NMeY = CN[C@@H](Cc1ccc(O)cc1)C(=O)O; Ethylenediamine = C(CN[*:2])N[*:1]; ξNMeL = CNC(CC(C)C)C(=O)O; Cbz = O=C(OCc1ccccc1)*; Lac = C[C@H](O)C(=O)O; ξA = CC(N)C(=O)O

Columns and labels:
Experiment in all cases: inhibition of tumour cell growth, NCI panel, 48 h
[1] = system: U-251
[2] = system: OVCAR-3
[3] = system: MOLT-4
[4] = system: ACHN
[5] = system: LXFL 529
[6] = system: SK-MEL-28
[7] = system: M14
[8] = system: HCT-15
[9] = system: SF-268
[10] = system: A549
[11] = system: IGROV-1
[12] = system: A498
[13] = system: BT-549
[14] = system: SK-MEL-2
[15] = system: MDA-MB-435
[16] = system: T47D
[17] = system: SNB-19
[18] = system: UACC-257
[19] = system: MDA-N
[20] = system: UO-31

Row | SMILES | GI50 [1] | GI50 [2] | GI50 [3] | GI50 [4] | GI50 [5] | GI50 [6] | GI50 [7] | GI50 [8] [µM] | GI50 [9] | GI50 [10] | GI50 [11] | GI50 [12] | GI50 [13] | GI50 [14] | GI50 [15] | GI50 [16] | GI50 [17] | GI50 [18] | GI50 [19] | GI50 [20]
1 | O=C(NC(=O)c1cn(CCNCCO)c(=O)[nH]c1=O)OCc1ccccc1 | > 100 µM (inactive) | > 100 µM (inactive) | > 100 µM (inactive) | > 100 µM (inactive) | > 100 µM (inactive) | > 100 µM (inactive) | > 100 µM (inactive) | > 100 | > 100 µM (inactive) | > 100 µM (inactive) | > 100 µM (inactive) | – | – | – | – | – | – | – | – | –
2 | Cc1cc(C)nc(NS(=O)(=O)c2ccc(Nc3nncc(=O)n3N)cc2)n1 | 17.7 µM (inactive) | 16.3 µM (inactive) | 15.5 µM (inactive) | 33.7 µM (inactive) | – | 26.5 µM (inactive) | 34.8 µM (inactive) | 14.5 | 20.1 µM (inactive) | 34.8 µM (inactive) | 15.1 µM (inactive) | 45.9 µM (inactive) | 18.4 µM (inactive) | 59 µM (inactive) | 18.6 µM (inactive) | 16.3 µM (inactive) | 30.6 µM (inactive) | 19.8 µM (inactive) | 16 µM (inactive) | 19.3 µM (inactive)
3 | CSc1c(CC(=O)O)n(Cc2ccccc2)c2ccccc12 | > 100 µM (inactive) | > 100 µM (inactive) | > 100 µM (inactive) | > 100 µM (inactive) | – | > 100 µM (inactive) | > 100 µM (inactive) | 74.5 | > 100 µM (inactive) | 35.8 µM (inactive) | > 100 µM (inactive) | > 100 µM (inactive) | > 100 µM (inactive) | > 100 µM (inactive) | > 100 µM (inactive) | 91.6 µM (inactive) | > 100 µM (inactive) | > 100 µM (inactive) | > 100 µM (inactive) | > 100 µM (inactive)
4 | CN(C)CCCN1C(=S)N(CCCN(C)C)c2c3ccccc3nc3c([N+](=O)[O-])ccc1c23 | 6.87 µM (inactive) | 6.21 µM (inactive) | 5.58 µM (inactive) | 4.06 µM (inactive) | – | 13.6 µM (inactive) | 6.27 µM (inactive) | 5.09 | 4.21 µM (inactive) | 5.41 µM (inactive) | 3.06 µM (inactive) | 7.71 µM (inactive) | 14.7 µM (inactive) | 12.5 µM (inactive) | 5.47 µM (inactive) | 15 µM (inactive) | 8.67 µM (inactive) | 6.01 µM (inactive) | 7.46 µM (inactive) | 5.66 µM (inactive)
5 | CC(=O)OC1C[C@@H](C)C2(C[C@H](O)c3ccoc3)C(=O)OC[C@]13C2CCC(O)C31CO1 (stereo partly specified) | > 100 µM (inactive) | > 100 µM (inactive) | > 100 µM (inactive) | > 100 µM (inactive) | – | > 100 µM (inactive) | > 100 µM (inactive) | > 100 | > 100 µM (inactive) | > 100 µM (inactive) | > 100 µM (inactive) | > 100 µM (inactive) | > 100 µM (inactive) | > 100 µM (inactive) | > 100 µM (inactive) | 1.51 µM (inactive) | > 100 µM (inactive) | > 100 µM (inactive) | > 100 µM (inactive) | > 100 µM (inactive)
6 | COc1ccc(C[C@@H](C(=O)NCCNC(=O)C(CC(C)C)N(C)C(=O)[C@@H]2CCCN2C(=O)[C@H](C)O)N(C)C(=O)[C@@H]2CCCN2C(=O)[C@H](CC(C)C)NC(=O)C(C)NC(=O)OCc2ccccc2)cc1 (stereo partly specified) (Cbz-[ξA]LP[NMeY](Me)-{Ethylenediamine-ξNMeL-Pro-Lac}) | > 100 µM (inactive) | > 100 µM (inactive) | 29 µM (inactive) | > 100 µM (inactive) | – | > 100 µM (inactive) | > 100 µM (inactive) | 82 | > 100 µM (inactive) | > 100 µM (inactive) | > 100 µM (inactive) | > 100 µM (inactive) | > 100 µM (inactive) | > 100 µM (inactive) | 54.2 µM (inactive) | 72.6 µM (inactive) | > 100 µM (inactive) | 46.1 µM (inactive) | 66.8 µM (inactive) | > 100 µM (inactive)
